Test [1] concerns the target T1, zebrafish Tgds (Danio rerio, UniProt A0AC58JQE1).
T1 construct: full coding region (347 residues) from ovary cDNA, pET-28a NdeI/XhoI, N-terminal 6xHis tag (cutting not mentioned), E. coli BL21 DE
T1 sequence (A0AC58JQE1 1-347): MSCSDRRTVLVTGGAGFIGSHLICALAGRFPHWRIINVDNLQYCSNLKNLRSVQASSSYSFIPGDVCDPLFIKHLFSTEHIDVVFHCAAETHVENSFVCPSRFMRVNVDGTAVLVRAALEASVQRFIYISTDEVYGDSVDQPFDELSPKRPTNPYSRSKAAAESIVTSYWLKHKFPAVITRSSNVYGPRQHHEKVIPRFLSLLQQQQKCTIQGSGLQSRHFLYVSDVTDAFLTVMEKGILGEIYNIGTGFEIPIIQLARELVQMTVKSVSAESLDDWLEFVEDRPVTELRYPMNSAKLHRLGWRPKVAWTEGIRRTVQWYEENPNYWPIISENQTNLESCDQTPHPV
Put plainly: anion exchange HPLC. Conditions: PBS pH 7.3, 30 °C. Format: biochemical.

Test [2] addresses T2, zebrafish Tgds (Danio rerio, UniProt A0AC58JQE1, E79G).
T2 construct: full coding region (347 residues) from ovary cDNA, pET-28a NdeI/XhoI, N-terminal 6xHis tag (cutting not mentioned), E. coli BL21 DE
T2 sequence (A0AC58JQE1 1-347 E79G): T1 sequence (A0AC58JQE1 1-347) with E79G
The test is described as follows: cycling assay of NAD+ tightly bound to the purified protein. The test is classed as binding. To be noted: co-purified, tightly bound cofactor; protein from calculated extinction coefficient at 280 nm. The source says: (§1) cycling assay of NAD+ tightly bound to the purified protein on zebrafish Tgds

Test [3] has as its target T3, zebrafish Tgds (Danio rerio, UniProt A0AC58JQE1, A89S).
T3 construct: full coding region (347 residues) from ovary cDNA, pET-28a NdeI/XhoI, N-terminal 6xHis tag (cutting not mentioned), E. coli BL21 DE
T3 sequence (A0AC58JQE1 1-347 A89S): T1 sequence (A0AC58JQE1 1-347) with A89S
Described as above. Conditions: co-purified, tightly bound cofactor; protein from calculated extinction coefficient at 280 nm. Format: binding.
Text: as §1

Test [4] addresses T4, zebrafish Tgds (Danio rerio, UniProt A0AC58JQE1, Y223H).
T4 construct: full coding region (347 residues) from ovary cDNA, pET-28a NdeI/XhoI, N-terminal 6xHis tag (cutting not mentioned), E. coli BL21 DE
T4 sequence (A0AC58JQE1 1-347 Y223H): T1 sequence (A0AC58JQE1 1-347) with Y223H
The test is described as above. Format: binding. To be noted: co-purified, tightly bound cofactor; protein from calculated extinction coefficient at 280 nm.
Text: as §1

The target in test [5] is T1, zebrafish Tgds. The test is described as above. Format: binding. Conditions: co-purified, tightly bound cofactor; protein from calculated extinction coefficient at 280 nm.
Text: as §1

These results are taken from article PMC13080230, “Zebrafish as a model for Catel–Manzke syndrome—identification and characterization of the zebrafish TGDS ortholog” (The Febs Journal, 2025).

Positions count from the first letter of the chain named.

In the case of `Cc1cn([C@H]2C[C@H](O)[C@@H](COP(=O)(O)OP(=O)(O)O[C@H]3O[C@H](CO)[C@@H](O)[C@H](O)[C@H]3O)O2)c(=O)[nH]c1=O` [TDP‐D‐glucose], the “anion exchange HPLC” value at zebrafish Tgds [1] was “The enzyme exhibited lower activity with TDP‐D‐glucose”.
Take `NC(=O)c1ccc[n+]([C@@H]2O[C@H](COP(=O)(O)OP(=O)(O)OC[C@H]3O[C@@H](n4cnc5c(N)ncnc54)[C@H](O)[C@@H]3O)[C@@H](O)[C@H]2O)c1` [NAD^+]: the “NAD^+/protein molar ratio ^d” value at zebrafish Tgds [2] was 0.16 mol/mol; on zebrafish Tgds [3], 0.39 mol/mol; on zebrafish Tgds [4], 0.04 mol/mol; at zebrafish Tgds [5], 0.55 mol/mol.
